Laboratory results taken from patent US20230398124A1, “SEVEN-MEMBERED RING COMPOUNDS AND METHOD OF USE THEREOF” (Invea Therapeutics, Inc., priority 2022, published 2023).
“Also recorded” adds a separate entry of the source.

Tests used:
[1] = test system: Mdr2 knock out (Mdr2 KO) mice; test: quantitative real time PCR of mast cell, pro-fibrotic and biliary senescence markers in liver of Mdr2 KO mice; format: in vivo, mouse; details: for Timp2 expression (pro-fibrotic marker): Mdr2 KO = 3.41885191, p<0.0001
Method: (§1) Animal: 10-12 weeks old Mdr2 homozygous knockout (Mdr2 KO) mice were raised on FVB/NJ background. All mice were maintained in a temperature-controlled environment (20° C. to 22° C.) with 12:12-hour light/dark cycles and fed standard chow with access to drinking water ad libitum.
Liver inflammation, fibrosis and biliary senescence was evaluated in liver sections by quantitative real time PCR for mast cell markers such as Mcpt1, Fcer1a, Tpsb2 (See FIG. 3) and pro-fibrotic markers such as Col1a1, Timp2 and Tgfb1, (See FIG. 8)_biliary senescence markers such as Cdkn2a, Cdkn2c, Tgfb1 & Gl1bl. (See FIG. 10). Liver tissue was lysed, and total RNA was isolated using trizol and fold change was calculated using ΔΔCt method.

[2] = test system: DSS-induced colitis C57Bl/6N mice; test: DSS-induced colitis mouse model (body weight loss, occult blood, stool consistency, DAI); format: in vivo; details: for DAI score: 20 mg/kg i.p. QD day 3 to 9, 0-4 scale, DSS vehicle 3 and above; for body weight loss (score) / occult blood score / rectal bleeding / stool consistency score / diarrhea: i.p. QD day 3 to 9, Compound 1 20 mg/kg, anti-TNF 15 mg/kg, observed 0-10 days
Method: Animal: For the DSS-induced acute model of experimental colitis, 8-week-old C57Bl/6N mice (weight between 17 and 20 grams, all females from Charles River Laboratories) were used. All mice were maintained in a temperature-controlled environment (20° C.±4° C.) with 12:12-hour light/dark cycles, relative humidity was maintained at 55%±10%, ventilation with 8-10 air changes per hour and fed standard chow with access to drinking water ad libitum.
Mice were treated with one oral cycles of 2.5% DSS (weight/volume) (DSS, molecular mass, 40 kDa; MP Biomedicals), characterized by 7 days of DSS exposure in drinking water, followed by 3 days of regular drinking water.
Administration of drugs: 3 days after starting DSS administration, mice were treated with testing drugs up to day 9, according to the experimental groups and the dose regimen described in table below. 0.5% (w/v) Hydroxypropyl cellulose was used as the vehicle.
From day 0 to 7, the animals received DSS in drinking water and the drugs were administered from day 3 to 9. Body weight and clinical observations such as diarrhea and bleeding from rectum were recorded daily post colitis induction until day 10.
Disease activity Index (DAI) and body weight loss were measured. Colitis severity was calculated using a disease activity index (DAI) score based on daily evaluation of body weight, stool consistency, and presence of blood in the stools, as determined using Hemoccult SENSA Cards (Beckman Coulter).
Grading of intestinal inflammation was determined according to the criteria proposed by Cooper et al (Cooper H S et al., Clinicopathologic study of dextran sulfate sodium experimental murine colitis. Lab Invest. 1993 August; 69(2):238-49, the DAI has been determined by scoring changes in variety of factors such as weight loss, stool consistency, and occult bleeding. The weight loss score ranges from 0 to 4, where zero signals no weight loss, score of 1 indicates the presence of 1-5% weight loss, a score of 2 signals the presence of 5-10% weight loss, a score of 3 signals the presence of 10-20% weight loss and a score of 4 represents greater than 20% weight loss. Likewise, the stool consistency score ranges from 0 to 4 with a score of zero representing normal stools, a score of 2 represents loose stools and a score of 4 represents diarrhea. The rectal bleeding is observed by scores ranging from 0 to 4, where a score of zero represents normal or no significant bleeding, a score of 2 indicates the presence of occult bleeding and a score of 4 indicates the presence of gross bleeding. A 5-point (0-4) DAI was obtained by calculating an average of body weight score, stool consistency and rectal bleeding.

[3] = test system: Mdr2 knock out (Mdr2 KO) mice; details: 20 mg/kg i.p., vs untreated Mdr2 KO
Method: Mdr2 knock out (Mdr2 KO) mice are a genetic mouse model of PSC and display similar phenotypes to human PSC. Collagen content, ductular reaction and inflammation are elevated in Mdr2 knock out mice. Mdr2 KO mice also have enhanced mast cell (MC) presence. Total bile acid (TBA) content increases in Mdr2 knock out mice. Accumulation of chymase and tryptase positive mast cells (MC) in the liver was evaluated by immunohistochemistry.
as §1

[4] = test system: Mdr2 knock out (Mdr2 KO) mice; test: liver and serum total bile acid accumulation in Mdr2 KO mice, colorimetric assay; format: in vivo, mouse; details: 20 mg/kg i.p.
Method: as §1
Liver and serum bile acid accumulation was evaluated by using a colorimetric assay from Crystal Chem Inc (cat #80471). For Liver, total bile acid (TBA) was extracted from homogenized liver. For serum, (TBAs) were measured in serum by enzyme immunoassay (EIA). 3-alpha-hydroxysteroid dehydrogenase and Nicotinamide adenine dinucleotide (NAD) converted TBA into 3-keto steroids and NADH. The NADH reacts with nitroblue tetrazolium (NBT) to form a dye and this is measured at 540 nm absorbance.

[5] = test system: Mdr2 knock out (Mdr2 KO) mice; test: liver staining in Mdr2 KO mice: collagen deposition (Fast Green/Sirius Red), hydroxyproline, F4/80, Desmin; format: in vivo, mouse; details: for portal tract F4/80 immunoreactivity (macrophage marker) / expression of desmin levels (cholangiocyte activation marker): vs untreated Mdr2 KO; for collagen deposition: Fast Green/Sirius Red staining
Method: Mdr2 knock out (Mdr2 KO) mice are a genetic mouse model of PSC and display similar phenotypes to human PSC. Collagen content, ductular reaction and inflammation are elevated in Mdr2 knock out mice. Mdr2 KO mice also have enhanced mast cell (MC) presence. Total bile acid (TBA) content increases in Mdr2 knock out mice. Accumulation of chymase and tryptase positive mast cells (MC) in the liver was evaluated by immunohistochemistry. Metabolic parameters such as Total Bile Acids (serum and liver), Ductular Reaction (CK-19), Hepatic Fibrosis (Fast Green Sirius Red staining), Collagen deposition, Hydroxyproline levels, Fibrotic Gene Markers, cholangiocyte Activation (Desmin), inflammation and mast cell products, (F4/80, which is a macrophage marker) and Senescence and SASP markers (TGF-β1, p21, p16) are measured to determine the effect of compound 1 in mouse model of hepatobiliary disease.
as §1
Fibrosis in liver was evaluated by quantitatively estimating collagen deposition with Fast green and Sirius red staining of formalin fixed paraffin-embedded liver sections ([…]). Hepatic fibrosis and collagen deposition is evaluated by quantitative Fast Green/Sirius Red staining. Macrophage accumulation was determined by staining for F4/80 antibody. (See FIG. 4) Cholangiocyte activation was analyzed by immunofluorescence for Desmin (See FIG. 5) and CK19 (marker for cholangiocytes). (See FIG. 9)

Compound: CCC[C@@H](NC(=O)N1C/C(=N/OCC)NC[C@H](Cc2cc(Cl)ccc2OC)C1=O)c1ccc(C(=O)O)c(N)c1 [Compound 1 monoacetic acid solvate, 2-amino-4-[(1R)-1-({[(3Z,6S)-6-(5-chloro-2-methoxybenzyl)-3-(ethoxyimino)-7-oxo-1,4-diazepan-1-yl]carbonyl}amino)butyl]benzoic acid monoacetic acid solvate]
- Tgfb1 expression (pro-fibrotic marker) ([1]; 10 mg/kg i.p., Mdr2 KO = 1.72254177, p=0.0138): 1.133 fold change
- Fcer1 expression (mast cell marker) ([1]; 10 mg/kg i.p., Mdr2 KO = 2.20989385, p=0.0058): 1.532 fold change
- Tpsb2 expression (mast cell marker) ([1]; 10 mg/kg i.p., Mdr2 KO = 2.21107066, p=0.8750): 1.53 fold change
- Mcpt1 expression (mast cell marker) ([1]; 10 mg/kg i.p., Mdr2 KO = 2.33385383, p=0.0237): 0.8094 fold change
- Col1a1 expression (pro-fibrotic marker) ([1]; 10 mg/kg i.p., Mdr2 KO = 3.28243911, p=0.0005): 1.509 fold change
- Timp2 expression (pro-fibrotic marker) ([1]; 10 mg/kg i.p.): 1.539 fold change
- Tgfb1 expression (pro-fibrotic marker) ([1]; 20 mg/kg i.p., Mdr2 KO = 1.72254177, p=0.0018): 0.8986 fold change
- Fcer1 expression (mast cell marker) ([1]; 20 mg/kg i.p., Mdr2 KO = 2.20989385, p<0.0001): 0.8866 fold change
- Tpsb2 expression (mast cell marker) ([1]; 20 mg/kg i.p., Mdr2 KO = 2.21107066, p=0.7774): 1.341 fold change
- Mcpt1 expression (mast cell marker) ([1]; 20 mg/kg i.p., Mdr2 KO = 2.33385383, p=0.0178): 0.723 fold change
- Col1a1 expression (pro-fibrotic marker) ([1]; 20 mg/kg i.p., Mdr2 KO = 3.28243911, p<0.0001): 0.9248 fold change
- Timp2 expression (pro-fibrotic marker) ([1]; 20 mg/kg i.p.): 0.9494 fold change
- Tgfb1 expression (senescence marker) ([1]; 20 mg/kg i.p., Mdr2 KO = 4.188847, p=0.0002): 1.821 fold change
- Glb1l expression (senescence marker) ([1]; 20 mg/kg i.p., Mdr2 KO = 13.02486, p=0.0001): 3.319 fold change
- Cdkn2c expression (senescence marker) ([1]; 20 mg/kg i.p., Mdr2 KO = 16.05029, p=0.0050): 12.66 fold change
- Cdkn2a expression (senescence marker) ([1]; 20 mg/kg i.p., Mdr2 KO = 21.49752, p<0.0001): 3.739 fold change
- DAI score [2]: decrease
- body weight loss (score) [2]: reduction in the body weight loss; also recorded: decrease
- occult blood score / rectal bleeding [2]: reduction in bleeding; also recorded: decrease
- stool consistency score / diarrhea [2]: reduction in diarrhea; also recorded: decrease
- level of inflammatory marker Tpbs2 [3]: significantly reduced
- level of inflammatory marker mMCP1 [3]: significantly reduced
- Liver total bile acid content ([4]; Mdr2 KO vehicle = 3.498252, p<0.0001): 1.797 µM
- serum bile acid content ([4]; Mdr2 KO vehicle = 62.04502, p<0.0001): 26.24 µM
- hydroxyproline accumulation ([5]; 10 mg/kg i.p., Mdr2 KO = 4.871969, p=0.6426): 4.219
- hydroxyproline accumulation ([5]; 20 mg/kg i.p., Mdr2 KO = 4.871969, p=0.0078): 2.972
- portal tract F4/80 immunoreactivity (macrophage marker) ([5]; 20 mg/kg i.p.): decrease
- collagen deposition [5]: restricted
- collagen deposition ([5]; listed as compound 1 monoacetic acid solvate): decrease
- expression of desmin levels (cholangiocyte activation marker) [5]: decrease

Compound: CCC[C@@H](NC(=O)N1C/C(=N/OCC)NC[C@H](Cc2cc(Cl)ccc2OC)C1=O)c1ccc(C(=O)O)c(N)c1 [Compound 1, 2-amino-4-[(1R)-1-({[(3Z,6S)-6-(5-chloro-2-methoxybenzyl)-3-(ethoxyimino)-7-oxo-1,4-diazepan-1-yl]carbonyl}amino)butyl]benzoic acid]
- colon length reduction ([2]; 20 mg/kg i.p. QD day 3 to 9): significantly inhibits
- DAI score ([2]; 20 mg/kg): significantly attenuated
- DAI score ([2]; listed as compound 1, 20 mg/kg): < 2
- body weight loss (score) [2]: significantly attenuated
- occult blood score / rectal bleeding [2]: significantly attenuated
- stool consistency score / diarrhea [2]: significantly attenuated
- portal tract F4/80 immunoreactivity (macrophage marker) ([5]; 20 mg/kg i.p.): reduces
- expression of desmin levels (cholangiocyte activation marker) [5]: reduction
